Experiments:
UACC-62 = test: NCI one-dose screening, melanoma UACC-62; format: cell-based, human; conditions: UACC-62, 10 μM
SF-539 = test: NCI one-dose screening, CNS cancer SF-539; format: cell-based, human; conditions: SF-539, 10 μM
HS 578-T = test: NCI one-dose screening, breast cancer HS 578-T; format: cell-based, human
[1] = tested on: PC-3 prostate cancer cell line; test: SRB assay cell viability, PC-3 prostate cancer cell line; format: cell-based, human; conditions: PC-3 prostate cancer cell line, Table II prints no unit, μM printed, read-out: SRB assay: 50% inhibition of cancer cell proliferation of sample concentration (IC50) of PC-3 prostate cancer cell line
IGROV1 = test: NCI one-dose screening, ovarian cancer IGROV1; format: cell-based, human; conditions: IGROV1, 10 μM
MDA-MB-468 = test: NCI one-dose screening, breast cancer MDA-MB-468; format: cell-based, human; conditions: MDA-MB-468, 10 μM
UACC-257 = test: NCI one-dose screening, melanoma UACC-257; format: cell-based, human; conditions: UACC-257, 10 μM
ACHN = test: NCI one-dose screening, renal cancer ACHN; format: cell-based, human; conditions: ACHN
DU145 = test: NCI one-dose screening, prostate cancer DU145; format: cell-based, human; conditions: DU145, 10 μM
CAKI-1 = test: NCI one-dose screening, renal cancer CAKI-1; format: cell-based, human; conditions: CAKI-1, 10 μM
SNB-19 = test: NCI one-dose screening, CNS cancer SNB-19; format: cell-based, human; conditions: SNB-19, 10 μM
CCRF-CEM = test: NCI screening platform one-dose single concentration screening, leukemia CCRF-CEM; format: cell-based, human; conditions: CCRF-CEM
MALME-3M = test: NCI one-dose screening, melanoma MALME-3M; format: cell-based, human; conditions: MALME-3M
PRMI-8226 cell line = test: NCI one-dose screening, leukemia PRMI-8226; format: cell-based, human; conditions: RPMI-8226, 10 μM
NCI-H226 = test: NCI one-dose screening, non-small cell lung cancer NCI-H226; format: cell-based, human; conditions: NCI-H226, 10 μM
U251 = test: NCI one-dose screening, CNS cancer U251; format: cell-based, human; conditions: U251, 10 μM
COLO 205 = test: NCI one-dose screening, colon cancer COLO 205; format: cell-based, human; conditions: COLO 205, 10 μM
HCC-2998 = test: NCI one-dose screening, colon cancer HCC-2998; format: cell-based, human; conditions: HCC-2998, 10 μM
SN12C = test: NCI one-dose screening, renal cancer SN12C; format: cell-based, human; conditions: SN12C
NCl/ADR-RES = test: NCI one-dose screening, breast cancer NCl/ADR-RES; format: cell-based, human; conditions: Ovarian cancer, NCI/ADR-RES
MCF7 = test: NCI one-dose screening, breast cancer MCF7; format: cell-based, human; conditions: MCF7, 10 μM
human tumor cell lines = test: NCI one-dose screening, mean, delta and range of growth percent over all cell lines tested; format: cell-based
NCI-H460 = test: NCI one-dose screening, non-small cell lung cancer NCI-H460; format: cell-based, human; conditions: NCI-H460, 10 μM
OVCAR-3 = test: NCI one-dose screening, ovarian cancer OVCAR-3; format: cell-based, human; conditions: OVCAR-3, 10 μM
TK-10 = test: NCI one-dose screening, renal cancer TK-10; format: cell-based, human; conditions: TK-10, 10 μM
KM12 = test: NCI one-dose screening, colon cancer KM12; format: cell-based, human; conditions: KM12, 10 μM
OVCAR-8 = test: NCI one-dose screening, ovarian cancer OVCAR-8; format: cell-based, human; conditions: OVCAR-8, 10 μM
HT29 = test: NCI one-dose screening, colon cancer HT29; format: cell-based, human; conditions: HT29, 10 μM
786-O = test: NCI one-dose screening, renal cancer 786-O; format: cell-based, human; conditions: 786-0, 10 μM
BT-549 = test: NCI one-dose screening, breast cancer BT-549; format: cell-based, human; conditions: BT-549, 10 μM
K562cell line = test: NCI one-dose screening, leukemia K562; format: cell-based, human; conditions: K562, 10 μM
LOX IMVI = test: NCI one-dose screening, melanoma LOX IMVI; format: cell-based, human; conditions: LOX IMVI
SK-MEL-5 = test: NCI one-dose screening, melanoma SK-MEL-5; format: cell-based, human; conditions: SK-MEL-5, 10 μM
OVCAR-4 = test: NCI one-dose screening, ovarian cancer OVCAR-4; format: cell-based, human; conditions: OVCAR-4, 10 μM
NCI-H522 = test: NCI one-dose screening, non-small cell lung cancer NCI-H522; format: cell-based, human; conditions: NCI-H522, 10 μM
SK-MEL-2 = test: NCI one-dose screening, melanoma SK-MEL-2; format: cell-based, human; conditions: SK-MEL-2, 10 μM
MDA-MB-231/ATCC = test: NCI one-dose screening, breast cancer MDA-MB-231/ATCC; format: cell-based, human; conditions: MDA-MB-231/ATCC
NCI-H23 = test: NCI one-dose screening, non-small cell lung cancer NCI-H23; format: cell-based, human; conditions: NCI-H23, 10 μM
RXF, 393 = test: NCI one-dose screening, renal cancer RXF, 393; format: cell-based, human; conditions: RXF 393, 10 μM
OVCAR-5 = test: NCI one-dose screening, ovarian cancer OVCAR-5; format: cell-based, human; conditions: OVCAR-5, 10 μM
EKVX = test: NCI one-dose screening, non-small cell lung cancer EKVX; format: cell-based, human; conditions: EKVX
PC-3 = test: NCI one-dose screening, prostate cancer PC-3; format: cell-based, human; conditions: PC-3, 10 μM
M14 = test: NCI one-dose screening, melanoma M14; format: cell-based, human; conditions: M14, 10 μM

SMILES: CN(C)CCNc1cc2c(c3nsnc13)C(=O)c1ccccc1C2=O [C8]
- Growth Percent (10 μM) (UACC-62): −47.85%
- Growth Percent (10 μM) (SF-539): −82.05%
- Growth Percent (10 μM) (HS 578-T): 4.32%
- IC50 [1]: 0.4 µM
- Growth Percent (10 μM) (IGROV1): −28.40%
- Growth Percent (10 μM) (MDA-MB-468): −62.81%
- Growth Percent (10 μM) (UACC-257): −88.80%
- Growth Percent (10 μM) (ACHN): −22.86%
- Growth Percent (10 μM) (DU145): −95.45%
- Growth Percent (10 μM) (CAKI-1): 6.88%
- Growth Percent (10 μM) (SNB-19): −77.31%
- Growth Percent (10 μM) (CCRF-CEM): −12.55%
- Growth Percent (10 μM) (MALME-3M): −85.22%
- Growth Percent (10 μM) (PRMI-8226 cell line): −29.81%
- Growth Percent (10 μM) (NCI-H226): 69.78%
- Growth Percent (10 μM) (U251): −55.42%
- Growth Percent (10 μM) (COLO 205): −99.38%
- Growth Percent (10 μM) (HCC-2998): −86.18%
- Growth Percent (10 μM) (SN12C): −95.78%
- Growth Percent (10 μM) (NCl/ADR-RES): −23.20%
- Growth Percent (10 μM) (MCF7): −49.41%
- Growth Percent (10 μM), Delta (human tumor cell lines; Delta over all cell lines tested): 49.51%
- Growth Percent (10 μM), Mean (human tumor cell lines; Mean over all cell lines tested): −49.52%
- Growth Percent (10 μM), Range (human tumor cell lines; Range over all cell lines tested): 112.33%
- Growth Percent (10 μM) (NCI-H460): −38.31%
- Growth Percent (10 μM) (OVCAR-3): −38.62%
- Growth Percent (10 μM) (TK-10): −35.59%
- Growth Percent (10 μM) (KM12): −21.66%
- Growth Percent (10 μM) (OVCAR-8): −28.91%
- Growth Percent (10 μM) (HT29): −45.50%
- Growth Percent (10 μM) (786-O): −14.05%
- Growth Percent (10 μM) (BT-549): −99.43%
- Growth Percent (10 μM) (K562cell line): −24.44%
- Growth Percent (10 μM) (LOX IMVI): −90.91%
- Growth Percent (10 μM) (SK-MEL-5): −98.79%
- Growth Percent (10 μM) (OVCAR-4): −71.27%
- Growth Percent (10 μM) (NCI-H522): −91.81%
- Growth Percent (10 μM) (SK-MEL-2): −66.52%
- Growth Percent (10 μM) (MDA-MB-231/ATCC): −2.96%
- Growth Percent (10 μM) (NCI-H23): −43.43%
- Growth Percent (10 μM) (RXF, 393): −59.58%
- Growth Percent (10 μM) (OVCAR-5): −76.97%
- Growth Percent (10 μM) (EKVX): −25.35%
- Growth Percent (10 μM) (PC-3): −18.35%
- Growth Percent (10 μM) (M14): −96.08%

From US8877748B2, “Heterocyclic fused anthraquinone derivatives, manufacturing method and pharmaceutical composition using thereof” (National Defense Medical Center, priority 2012, dated 2014)
